What was measured:
Format in all cases: in vivo
[1] = tested on: Tomato Yellow Leaf Curl Virus (TYLCV), virus-transferring vector Bemisia argentifolii; experiment: Example 2: field plots of tomatoes treated against the vector, virus infestation scored; conditions: 72 g of a.i./ha, 200 SC, three applications at 7-day intervals, 14 days after the 3rd treatment, TYLCV on tomatoes
Method: In three replications, plots of a size of 7.5 m^2 with tomatoes of the cultivar “Jumbo” are treated against the virus-transferring vector Bemisia argentifolii. Application is carried out using a pressurized air-operated knapsack sprayer. The active compound example (I-2) (240 SC) in a tank mix with 0.186% a.i. soya oil Natur'L Oleo (OL 930) and the commercial standard imidacloprid (200 SC) are applied at the stated application rates. Three applications are carried out at intervals of in each case 7 days. The water application rates are 300 l/ha, 400 l/ha and 600 l/ha.
Evaluation is carried out 14 days after the 3rd treatment by scoring the virus infestation with the Tomato Yellow Leaf Curl Virus (TYLCV) on the plants.
All 18 plants in the control were infected by the TYLCV.

[2] = tested on: Tomato Yellow Leaf Curl Virus (TYLCV), virus-transferring vector Bemisia argentifolii; experiment: Example 1: field plots of tomatoes treated against the vector, virus infestation scored; conditions: 72 g of a.i./ha, 200 SC, four applications at 7-day intervals, 25 days after the 4th treatment, TYLCV on tomatoes
Method: In three replications, plots of a size of 7.5 m^2 with tomatoes of the cultivar “Jumbo” are treated against the virus-transferring vector Bemisia argentifolii. Application is carried out using a motor-operated knapsack sprayer. The active compound example (I-2) (240 SC) in a tank mix with 0.186% a.i. soya oil Natur'L Oleo (OL 930) and the commercial standard imidacloprid (200 SC) are applied at the stated application rates. Four applications are carried out at intervals of in each case 7 days using a water application rate of in each case 300 l, 300 l, 500 l and 600 l/ha.
Evaluation is carried out 25 days after the 4th treatment by scoring the virus infestation with the Tomato Yellow Leaf Curl Virus (TYLCV) on the plants.
In the control, 11.7 of 15 plants were infected by the TYLCV.

[3] = tested on: Bean Golden Mosaic Virus (BGMV), virus-transferring vector Bemisia argentifolii; experiment: Example 3: field plots of bush beans treated against the vector, virus infestation scored; conditions: 72 g of a.i./ha, 200 SC, three applications at 7-day intervals, 16 days after the first treatment, BGMV on bush beans
Method: In three replications, plots of a size of 12 m^2 with bush beans of the cultivar “Carioca” are treated against the virus-transferring vector Bemisia argentifolii. Application is carried out using a pressurized air-operated knapsack sprayer. The active compound example (I-2) (240 SC) in a tank mix with 0.186% a.i. soya oil Natur'L Oleo (OL 930) and the commercial standard imidacloprid (200 SC) are applied at the stated application rates. Three applications are carried out at intervals of in each case 7 days. The water application rate is in each case 300 l/ha.
Evaluation is carried out 16 days after the first treatment by scoring the virus infestation with the Bean Golden Mosaic Virus (BGMV) on the plants.
All 10 plants in the control were infected by the BGMV.

[4] = tested on: Tomato Spotted Wilt Virus (TSWV); experiment: Example 4: field plots of tomatoes, tank mix versus single actives, virus infection scored; conditions: 72 g of a.i./ha, SC 200 on its own, four applications at 7-day intervals, 25 days after the treatment
Description: The expected activity for a given combination of two active compounds can be calculated according to S. R. Colby, Weeds 15 (1967), 20-22 as follows:
If • X is the degree of control, expressed in % of the untreated control, when using the active compound A at an application rate of m g/ha or in a concentration of m ppm, • Y is the degree of control, expressed in % of the untreated control, when using the active compound B at an application rate of n g/ha or in a concentration of n ppm and • E is the degree of control, expressed in % of the untreated control, when using the active compounds A and B at application rates of m and n g/ha or in a concentration of m and n ppm, then
If the actual degree of control is greater than the calculated degree of control, the control of the combination is superadditive, i.e. a synergistic effect is present. In this case, the degree of control actually observed must be greater than the value for the expected kill rate (E) calculated using the formula given above.
After the desired period of time, the control in % is determined. 100% means that no plants have been infected by viruses; 0% means that all plants have been infected by viruses.
In three replications, plots of a size of 7.5 m^2 with tomatoes of the cultivar “Jumbo” are treated against the virus-transferring vector Bemisia argentifolii using a compressed air-operated sprayer. […]

O=[N+]([O-])/N=C1\NCCN1Cc1ccc(Cl)nc1 [imidacloprid]
Degree of control according to Abbott (%) 14 d [1]: 33%
Degree of control according to Abbott (%) 25 d [2]: 40.0%
Degree of control according to Abbott (%) 16 d [3]: 60.0%
Degree of control according to Abbott (%) 25 d [4]: 80%

Source: patent US20100249121A1, “USE OF TETRAMIC ACID DERIVATIVES FOR C[…]-TR[…]” (priority 2007, published 2010)
